The source made the active and inactive calls.
Columns and labels:
Assay type in all cases: functional, cell-based
[1] = tested on: CCRF-CEM; experiment: Cell cycle arrest in human CEM cells assessed as accumulation at S phase after 72 hrs by FACS
[2] = tested on: CCRF-CEM; experiment: Cytotoxicity against human CEM cells at 50 uM after 48 hrs by trypan blue exclusion assay
[3] = tested on: CCRF-CEM; experiment: Cell cycle arrest in human CEM cells assessed as accumulation at G2 phase after 72 hrs by FACS
[4] = tested on: CCRF-CEM; experiment: Cytotoxicity against human CEM cells assessed as LDH release after at 10 to 250 uM; settings: TDE = time-dependent effect
[5] = tested on: CCRF-CEM; experiment: Cell cycle arrest in human CEM cells assessed as accumulation at sub G1 phase after 72 hrs by FACS
[6] = tested on: CCRF-CEM; experiment: Cytotoxicity against human CEM cells at 100 uM after 48 hrs by trypan blue exclusion assay
[7] = tested on: CCRF-CEM; experiment: Cytotoxicity against human CEM cells at 250 uM after 48 hrs by trypan blue exclusion assay
[8] = tested on: CCRF-CEM; experiment: Cell cycle arrest in human CEM cells assessed as accumulation at G2/M phase after 72 hrs by FACS
[9] = tested on: CCRF-CEM; experiment: Cell cycle arrest in human CEM cells assessed as accumulation at G1 phase after 72 hrs by FACS

Measured: Activity

CCN1C(=O)C(=C(C)C)SC1=S
active: [1] Dose-dependent effect | [2] | [3] Dose-dependent effect | [4] tde | [5] Dose-dependent effect | [6] | [7] | [8] Dose-dependent effect | [9] Dose-dependent effect
